# “And” between values parts separate entries of the source, which are not always exact repeats. Equal entries are not always repeated. Where two headings read alike, the source gives them in different places.
# Assays:
# [1] = tested on: L. donovani strain MHOM/ET/67/L82; assay: Activity against L. donovani axenic amastigotes (Alamar Blue); type: cell-based; details: for IC50: Leishmania donovani
# Method: (§1) For all the susceptibility assays with parasites and cells, each drug was tested in duplicate and each assay was repeated at least once. • a. Activity against Trypanosoma brucei rhodesiense STIB900. This stock was isolated in 1982 from a human patient in Tanzania and after several mouse passages cloned and adapted to axenic culture conditions (Baltz et al 1985) Minimum Essential Medium (50 µl) supplemented with 25 mM HEPES, 1g/l additional glucose, 1% MEM non-essential amino acids (100x), 0.2 mM 2-mercaptoethanol, 1 mM Na-pyruvate and 15% heat inactivated horse serum was added to each well of a 96-well microtiter plate. Serial drug dilutions of eleven 3-fold dilution steps covering a range from 100 to 0.002 µg/ml were prepared. Then 4x10^3 bloodstream forms of T. b. rhodesiense STIB 900 in 50 µl was added to each well and the plate incubated at 37 °C under a 5 % CO2 atmosphere for 70 h. 10 µl Alamar Blue (resazurin, 12.5 mg in 100 ml double-distilled water) was then added to each well and incubation continued for a further 2-4 h (Raz et al 1997). Then the plates were read with a Spectramax Gemini XS microplate fluorometer (Molecular Devices Cooperation, Sunnyvale, CA, USA) using an excitation wave length of 536 nm and an emission wave length of 588 nm. The IC50 values were calculated by linear regression (Huber 1993) from the sigmoidal dose inhibition curves using SoftmaxPro software (Molecular Devices Cooperation, Sunnyvale, CA, USA). Melarsoprol (Arsobal Sanofi-Aventis, received from WHO) is used as control. • b. Activity against T. cruzi. Rat skeletal myoblasts (L-6 cells) were seeded in 96-well microtitre plates at 2000 cells/well in 100 µL RPMI 1640 medium with 10% FBS and 2 mM I-glutamine. After 24 h the medium was removed and replaced by 100 µl per well containing 5000 trypomastigote forms of T. cruzi Tulahuen strain C2C4 containing the β-galactosidase (Lac Z) gene (Buckner et al. 1996). After 48 h the medium was removed from the wells and replaced by 100 µl fresh medium with or without a serial drug dilution of eleven 3-fold dilution steps covering a range from 100 to 0.002 µg/ml. After 96 h of incubation the plates were inspected under an inverted microscope to assure growth of the controls and sterility. Then the substrate CPRG/Nonidet (50 µl) was added to all wells. A color reaction developed within 2-6 h and could be read photometrically at 540 nm. Data were analyzed with the graphic programme Softmax Pro (Molecular Devices), which calculated IC50 values by linear regression (Huber 1993) from the sigmoidal dose inhibition curves. […] Activity against L. donovani axenic amastigotes. Amastigotes of L. donovani strain MHOM/ET/67/L82 were grown in axenic culture at 37 °C in SM medium (Cunnigham et al. 1977) at pH 5.4 supplemented with 10% heat-inactivated fetal bovine serum under an atmosphere of 5% CO2 in air. One hundred microlitres of culture medium with 10^5 amastigotes from axenic culture with or without a serial drug dilution were seeded in 96-well microtitre plates. Serial drug dilutions of eleven 3-fold dilution steps covering a range from 90 to 0.002 µg/ml were prepared. After 70 h of incubation the plates were inspected under an inverted microscope to assure growth of the controls and sterile conditions. 10 µl of Alamar Blue (12.5 mg resazurin dissolved in 100 ml distilled water) (Mikus and Steverdig. 2000) were then added to each well and the plates incubated for another 2 h. Then the plates were read with a Spectramax Gemini XS microplate fluorometer (Molecular Devices Cooperation, Sunnyvale, CA, USA) using an excitation wave length of 536 nm and an emission wave length of 588 nm. Data were analyzed using the software Softmax Pro (Molecular Devices Cooperation, Sunnyvale, CA, USA). Decrease of fluorescence (= inhibition) was expressed as percentage of the fluorescence of control cultures and plotted against the drug concentrations. From the sigmoidal inhibition curves the IC50 values were calculated. • d.
# Falcipain 2 = biological target: T1, Falcipain 2 (Plasmodium falciparum, UniProt Q8I6U4); assay: Protease assay, fluorogenic substrate Z-Phe-Arg-AMC: Falcipain 2; type: biochemical; details: FP2=Falcipain2
# T1 construct: made in house
# Source text: (§2) 2.1.1. Protease Assays as shown in tables 1 and 2: Cathepsin L (human), Cathepsin B (human), Rhodesain (Trypanosoma brucei rhodesiense), Falcipain 2 (Plasmodium falciparum)
# (§3) Enzyme assays used to identify inhibitors of the target cysteine proteases. The effect is detected measuring fluorescence increase due to hydrolysis of fluorogenic substrates by the target enzymes in absence and presence of potential inhibitors.
# (§4) • a. Proteins (enzymes): • Cathepsin L (human liver) Calbiochem • Cathepsin B (human liver) Calbiochem • Rhodesain: recombinantly expressed according to ref.: Caffrey, C. R.; Hansell, E.; Lucas, K. D.; Brinen, L. S.; Hernandez, A. A.; Cheng, J.; Gwaltney, S. L., II; Roush, W. R.; Stierhof, Y. D.; Bogyo, M.; Steverding, D.; McKerrow, J. H. Active site mapping, biochemical properties and subcellular localization of rhodesain, the major cysteine protease of Trypanosoma • Falcipain 2: recombinantly expressed according to ref.: Pandey, K. C.; Wang, S. X.; Sijwali, P. S.; Lau, A. L.; McKerrow, J. H.; Rosenthal, P. J. The Plasmodium falciparum cysteine protease falcipain-2 captures its substrate, hemoglobin, via a unique motif. Proc. Natl. Acad. Sci. U.S.A. 2005, 102, 9138-9143. • b. Buffers: • Cathepsin B: 50 mM Tris-Puffer pH 6.5 mit 2 mM DTT, 5 mM EDTA, 200 mM NaCl, 0.005% Brij35 • Cathepsin L: 50 mM Tris-Puffer pH 6.5 mit 2 mM DTT, 5 mM EDTA, 200 mM NaCl, 0.005% Brij35 • Rhodesain: 50 mM Acetat-Puffer pH 5.5 mit 5 mM DTT, 5 mM EDTA, 200 mM NaCl, 0.005% Brij35 • Falcipain 2: 50 mM Acetat-Puffer pH 5.5 mit 5 mM DTT, 5 mM EDTA, 200 mM NaCl, 0.005% Brij35 • c. Substrates: • Cathepsin L: 6,25 µM Z-Phe-Arg-7-amino-4-methylcumarin, HCl von Bachem, Ex 380 nm, Em 460 nm • Cathepsin B: 100 µM Z-Phe-Arg-7-amino-4-methylcumarin, HCl von Bachem, Ex 380 nm, Em 460 nm • Rhodesain: 10µM Z-Phe-Arg-7-amino-4-methylcumarin, HCl von Bachem, Ex 380 nm, Em 460 nm • Falcipain 2: 25µM Z-Phe-Arg-7-amino-4-methylcumarin, HCl von Bachem, Ex 380 nm, Em 460 nm • Reference substance(s)/positive control(s): E64 • d. Solvent for inhibitors and substrates: DMSO 99,5% (GC) DC4540, Sigma • e. Measurement device: Tecan Fluorescence spectrophotometer infinite F200 Pro • f. Well plates: 96 well plates, Lia-Plate White, Greiner bio-one, flat bottom, high binding • g. Methodology: Substrates and inhibitor stock solutions are prepared in DMSO and diluted with the respective assay buffer (final DMSO concentration: […]). Enzyme stock solutions are diluted with assay buffer to yield a fluorescence increase of dF/min ≈ _20. Total volume: 200 µL (180 µL of assay buffer, 5 µL of enzyme solution, 10 µL of DMSO or inhibitor solution, 5 µL of substrate solution). Assays are started by the addition of substrate solution. Fluorescence increase is detected over a period of 10 - 30 min, depending on time dependent (30 min) or non-time dependent (10 min) inhibition. • h. Temp: 25 °C • i. DATA-[…] • Software: Grafit 5.013 • Ki values are calculated from IC50 values (obtained by the 4-parameter IC50 equation) using the Chen-Prusoff equation: Ki=IC50/(1 + [S]/Km)
# (§5) In vitro inhibition of cysteine-proteases cruzain (CR) (Trypanosoma cruzi (T. cruzi)), rhodesain (RD) (T. brucei), cathepsin B (CB), falcipain (FP2) (Plasmodium falciparum) and cathepsin L (CL) was assessed by quantification of the resulting fluorescence emission of the proteolytic breakdown of synthetic compound Z-Phe-Arg-AMC (Bachem). The results of this determination are shown in tables 1 and 2 illustrated above.
# cruzain (CR) = cruzain (CR) (Trypanosoma cruzi, UniProt P25779); assay: In vitro inhibition of cruzain, fluorescence of Z-Phe-Arg-AMC breakdown; type: biochemical
# Method: as §3, §5
# Cathepsin B (human) = biological target: T2, Cathepsin B (human) (Homo sapiens, UniProt P07858); assay: Protease assay, fluorogenic substrate Z-Phe-Arg-AMC: Cathepsin B; type: biochemical; details: CB=CathepsinB; for IC50: 25 °C, pH 6.5, 100 µM substrate, read-out: CBIC50micM
# T2 construct: Cathepsin B (human liver) Calbiochem; purchased Calbiochem; host or cells: human liver (tissue-derived)
# Source text: as §2, §3, §4, §5
# Cathepsin L (human) = biological target: T3, Cathepsin L (human) (Homo sapiens, UniProt P07711); assay: Protease assay, fluorogenic substrate Z-Phe-Arg-AMC: Cathepsin L; type: biochemical
# T3 construct: Cathepsin L (human liver) Calbiochem; purchased Calbiochem; host or cells: human liver (tissue-derived)
# Source text: as §2, §3, §4, §5
# Rhodesain = biological target: T4, Rhodesain (Trypanosoma brucei rhodesiense, UniProt Q95PM0); assay: Protease assay, fluorogenic substrate Z-Phe-Arg-AMC: Rhodesain; type: biochemical; details: for IC50: RD=Rhodesain, 25 °C, pH 5.5, 10µM substrate
# T4 construct: made in house
# Source text: as §2, §3, §4, §5
# [2] = tested on: Trypanosoma brucei rhodesiense STIB900; assay: Activity against Trypanosoma brucei rhodesiense STIB900 (Alamar Blue); type: cell-based; details: Trypanosoma brucei
# Method: as §1
# [3] = tested on: T. cruzi Tulahuen strain C2C4; assay: Activity against T. cruzi in L-6 cells (beta-galactosidase, CPRG); type: cell-based; details: Trypanosoma cruzi, TULAHUEN, L6
# Method: as §1
# [4] = tested on: P. falciparum NF54 strain; assay: Activity against P. falciparum, 3H-hypoxanthine incorporation assay; type: cell-based; details: Plasmodium falciparum, NF54
# [5] = read-out: CL(IC50); CL=CathepsinL; 25 °C, pH 6.5, 6,25 µM substrate
# [6] = 70 h, replicate 1, bloodstream forms, 70 h, read-out: T.b.rhod. IC50 repl1
# [7] = 70 h, replicate 2, bloodstream forms, 70 h, read-out: T.b.rhod. IC50 repl2
# [8] = mean of replicates, read-out: T.b.rhod. IC50 mean
# [9] = mean of replicates, read-out: L.don. ax am IC50 mean
# [10] = replicate 1, axenic amastigotes, pH 5.4, 70 h, read-out: L.don. ax am IC50 repl1
# [11] = mean of replicates, read-out: T.cruzi. IC50 mean
# [12] = replicate 1, L-6 cells, 96 h, read-out: T.cruzi. IC50 repl1
# [13] = replicate 2, L-6 cells, 96 h, read-out: T.cruzi. IC50 repl2
# [14] = mean of replicates, read-out: P.falc NF54 IC50 mean
# [15] = replicate 1, erythrocytic stages, read-out: P.falc NF54 IC50 repl1
# [16] = replicate 2, erythrocytic stages, read-out: P.falc NF54 IC50 repl2
# T3 sequence (P07711 114-333): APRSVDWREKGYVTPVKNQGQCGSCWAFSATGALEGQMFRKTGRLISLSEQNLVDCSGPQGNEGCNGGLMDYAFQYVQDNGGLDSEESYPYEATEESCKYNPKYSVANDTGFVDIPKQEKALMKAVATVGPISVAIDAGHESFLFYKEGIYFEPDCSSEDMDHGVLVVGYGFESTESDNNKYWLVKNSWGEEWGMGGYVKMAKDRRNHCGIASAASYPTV
# cruzain (CR), sequence (P25779 123-467): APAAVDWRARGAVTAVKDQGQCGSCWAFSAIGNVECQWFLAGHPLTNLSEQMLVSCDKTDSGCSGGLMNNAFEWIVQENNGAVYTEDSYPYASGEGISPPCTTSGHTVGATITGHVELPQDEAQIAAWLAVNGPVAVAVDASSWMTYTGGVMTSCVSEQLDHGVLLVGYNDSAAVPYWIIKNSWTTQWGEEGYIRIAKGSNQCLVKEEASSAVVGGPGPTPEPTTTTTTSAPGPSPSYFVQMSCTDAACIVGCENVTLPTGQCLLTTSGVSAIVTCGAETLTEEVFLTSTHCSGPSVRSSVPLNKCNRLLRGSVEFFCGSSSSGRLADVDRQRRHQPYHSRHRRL
# T4 sequence (Q95PM0 entry or part of it): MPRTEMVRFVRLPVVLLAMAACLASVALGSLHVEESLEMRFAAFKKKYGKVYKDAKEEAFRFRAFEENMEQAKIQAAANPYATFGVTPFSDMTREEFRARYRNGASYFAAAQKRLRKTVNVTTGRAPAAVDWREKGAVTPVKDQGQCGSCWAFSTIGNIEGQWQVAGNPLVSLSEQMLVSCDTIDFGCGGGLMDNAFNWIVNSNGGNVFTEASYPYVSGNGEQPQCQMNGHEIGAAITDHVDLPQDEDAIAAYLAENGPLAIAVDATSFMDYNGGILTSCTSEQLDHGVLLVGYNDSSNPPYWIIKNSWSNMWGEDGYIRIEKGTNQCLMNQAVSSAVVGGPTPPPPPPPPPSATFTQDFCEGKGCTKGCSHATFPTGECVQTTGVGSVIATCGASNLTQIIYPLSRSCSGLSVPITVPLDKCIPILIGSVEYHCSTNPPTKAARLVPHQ
# T1 sequence (Q8I6U4 244-484): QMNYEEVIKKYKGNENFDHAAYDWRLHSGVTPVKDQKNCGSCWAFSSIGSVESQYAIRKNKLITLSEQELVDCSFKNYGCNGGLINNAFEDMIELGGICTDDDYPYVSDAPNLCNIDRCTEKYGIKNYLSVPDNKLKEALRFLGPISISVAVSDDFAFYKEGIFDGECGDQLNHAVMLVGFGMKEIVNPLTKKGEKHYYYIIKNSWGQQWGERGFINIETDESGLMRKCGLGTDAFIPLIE
SMILES,FP2(K2nd(M-1s-1)) (Falcipain 2) [M⁻¹ s⁻¹],CR(K2nd(M-1s-1)) (cruzain (CR)) [M⁻¹ s⁻¹],IC50 (cruzain (CR)) [nM],CB(K2nd(M-1s-1)) (Cathepsin B (human)) [M⁻¹ s⁻¹],IC50 (Cathepsin B (human)) [nM],CL(K2nd(M-1s-1)) (Cathepsin L (human); CL=CathepsinL) [M⁻¹ s⁻¹],IC50 (Cathepsin L (human); [5]) [nM],RD(K2nd(M-1s-1)) (Rhodesain) [M⁻¹ s⁻¹],IC50 (Rhodesain) [nM],other results
"CCCCCCCCCCCCCCCCOP(=O)([O-])OCC[N+](C)(C)C [Miltefosine, reference compound]",–,–,–,–,–,–,–,–,–,"IC50 ([1]; 70 h, pH 5.4, replicate 2, axenic amastigotes, pH 5.4, 70 h, read-out: L.don. ax am IC50 repl2): 0.071 µg/mL; L.don. ax am IC50 mean ([1]; mean of replicates): 0,059 micrograms/mL and 1,44 micrograms/mL; L.don. ax am IC50 repl1 ([1]; replicate 1, axenic amastigotes, pH 5.4, 70 h): 0,046 micrograms/mL and 1,44 micrograms/mL"
CCOC(=O)/C=C/C(=O)[C@H](CCc1ccccc1)NC(=O)[C@H](CC(C)C)NC(=O)OCc1ccccc1 [drawing 39],6035,60784,77,42393,50,29885,257,116147,145,–
CCOC(=O)/C=C/C(=O)[C@H](CCc1ccccc1)NC(=O)[C@H](Cc1ccccc1)NC(=O)OCc1ccccc1 [FGA-44],–,–,–,–,–,–,–,–,–,"IC50 [2, 6]: 0.446 µg/mL; IC50 [2, 7]: 0.564 µg/mL; IC50 [2, 8]: 0.505 µg/mL; IC50 [1, 9]: 6.87 µg/mL; IC50 [1, 10]: 6.87 µg/mL; IC50 [3, 11]: 10.9 µg/mL; IC50 [3, 12]: 7.74 µg/mL; IC50 [3, 13]: 14.1 µg/mL; IC50 [4, 14]: 6.82 µg/mL; IC50 [4, 15]: 7.19 µg/mL; IC50 [4, 16]: 6.44 µg/mL"
CCOC(=O)/C=C/C(=O)[C@H](CCc1ccccc1)NC(=O)[C@H](CC(C)C)NC(=O)OCc1ccccc1 [FGA-47],–,–,–,–,–,–,–,–,–,"IC50 [2, 6]: 1.68 µg/mL; IC50 [2, 7]: 0.675 µg/mL; IC50 [2, 8]: 1.18 µg/mL; IC50 [1, 9]: 0.048 µg/mL; IC50 [1, 10]: 0.044 µg/mL; IC50 ([1]; replicate 2, axenic amastigotes, pH 5.4, 70 h, read-out: L.don. ax am IC50 repl2): 0.052 µg/mL; IC50 [3, 11]: 3.63 µg/mL; IC50 [3, 12]: 5.17 µg/mL; IC50 [3, 13]: 2.09 µg/mL; IC50 [4, 14]: 0.821 µg/mL; IC50 [4, 15]: 0.921 µg/mL; IC50 [4, 16]: 0.72 µg/mL"
CCOC(=O)/C=C/C(=O)[C@H](CCc1ccccc1)NC(=O)[C@H](Cc1ccccc1)NC(=O)OCc1ccccc1 [drawing 38],17099,–,–,45486,70,45364,–,1274510,30.7,"IC50 (Cathepsin L (human); CL=CathepsinL; 25 °C, pH 6.5, 6,25 µM substrate; read-out: CL(IC50)): 50 nM"
CCOC(=O)/C=C/C(=O)[C@H](C)NC(=O)[C@H](CC(C)C)NC(=O)OCc1ccccc1,12013,14412,630,85470,70,9821,550,14207,800,"IC50 (Falcipain 2; 25 °C, pH 5.5, 25µM substrate): 1180 nM"
CCOC(=O)/C=C/C(=O)[C@H](C)NC(=O)[C@H](Cc1ccccc1)NC(=O)OCc1ccccc1,28285,139583,290,4738,140,197273,90,6481,590,–
